Laboratory results: patent US20250064762A1, “A SUBSTITUTED AROMATIC DICARBONIC ACID AMIDE AS AN INHIBITOR OF THE FERROPTOSIS SUPPRESSOR PROTEIN-1 (FSP1)” (JULIUS-MAXIMILIANS-UNIVERSITÄT WÜRZBURG, priority 2021, published 2025)

Assays:
cancer cell lines = test: FIN56 toxicity in a panel of cancer cell lines; type: cell-based, human, mouse, rat
Description: Cell culture media and supplements were from Thermo Fisher Scientific, unless specified otherwise. Mouse embryonic fibroblasts (MEFs) were generated from Pgp-wildtype (Pgp^fl/fl) or heterozygous Pgp-inactivated mouse embryos (Pgp^fl/D34N) as described (Segerer et al., 2016). Human embryonic kidney HEK-AD293 (HEK293) cells (Stratagene), HT-1080 human fibrosarcoma cells, PC3 and Du145 human prostate carcinoma cells, HepG2 human hepatocytic carcinoma (HCC) cells, Hepa 1-6 murine HCC, 4T1 mouse breast carcinoma, Colon-26 mouse colon carcinoma, C6 rat glioblastoma and RAW264.7 mouse monocytes/macrophages (all from LGC Standards) were cultured in Dulbecco's modified Eagle's medium (DMEM, 4.5 g/L glucose) supplemented with 10% (v/v) heat-inactivated fetal calf serum (FCS), 2 mM L-glutamine, 100 U/mL penicillin and 100 μg/mL streptomycin (Pen/Strep). Hepa-1c1c7 murine HCC were grown in alpha MEM without nucleosides (Gibco, cat. no. 31095029) supplemented with 10% FCS and Pen/Strep. JTC-27 rat HCC were cultured in RPMI-1640 with 10% FCS and Pen/Strep. […]
Cells were seeded onto 96-well plates (5,000 cells per well), and treated with serial dilutions of ferroptosis-inducing compounds (erastin, BSO, RSL3, FIN56) or cytotoxic drugs (staurosporine, nocodazole, tunicamycin, paclitaxel, etoposide, menadione, rotenone, FCCP, carboplatin) in the absence or presence of CPBA or iFSP1 (100 μM or 10 μM, respectively; unless stated otherwise) or the DMSO solvent control. Ferroptotic cell death was evaluated by incubating in the absence or presence of liproxstatin-1 (100 nM), ferrostatin-1 (200 nM), or deferoxamine (100 μM). Cell viability was assessed after 16 h using AquaBluer as an indicator of viable cells according to the manufacturer's recommendations (MultiTarget Pharmaceuticals, LLC). Fluorescence (excitation, 540 nm; emission, 590 nm) was analyzed on a Clariostar microplater reader. […]

[1] = system: LOX-IMVI human melanoma cells; test: FIN56-induced ferroptosis in LOX-IMVI cells with mock vector or FSP1-Venus; type: cell-based
Procedure: The following HT1080 fibrosarcoma cell lines were generated using CRISPR/Cas9 technology, as previously described (Doll et al., 2019): HT1080 GPX4-knockout (KO) cells (maintained in the presence of 100 μM α-tocopherol); HT1080 GPX4 knockout cells overexpressing FSP1 (GPX4-KO/FSP1-OE); GPX4-KO cells overexpressing FSP1 and re-expressing GPX4 (GPX4-KO/FSP1-OE/GPX4-OE); HT1080 FSP1-WT or FSP1-KO cells; and HT1080 FSP1-KO cells reconstituted with either FSP1-WT or FSP1-G2A. LOX-IMVI (BRAF V600E heterozygous human melanoma cells) expressing either the Venus mock vector or FSP1-Venus (Doll et al., 2019) were grown in RPMI-1640 supplemented with 10% FCS, 2 mM L-glutamine and Pen/Strep.
LOX-IMVI cells are FSP1-deficient, and were reconstituted with either mock vector (expressing Venus), or with FSP1-Venus to restore FSP1 expression, and treated with either CPBA or iFSP1 as described above (see FIG. 18B).

Compound	effect in human cancer cell lines (cancer cell lines; human cancer cell lines)	effect in mouse or rat cancer cell lines (cancer cell lines; mouse or rat cancer cell lines (FIG. 20A))	effectiveness in LOX-IMVI cells ([1]; as described previously (Doll et al., Nature 2019))	sensitization of cancer cell lines to FIN56-induced ferroptosis (cancer cell lines; CPBA 100 μM, iFSP1 10 μM (3 μM in HepG2), 16 h)	effect in cells reconstituted with FSP1-Venus ([1]; CPBA- and FIN56-treated cells)	enhancement of the ferroptosis-inducing effect of FIN56 ([1]; FSP1-deficient cells (mock vector))
Cc1ccc(-c2c(C#N)c(N)n3c(nc4ccccc43)c2C#N)cc1 [iFSP1, reference compound]	able to inhibit endogenous and overexpressed FSP1 in human cancer cell lines, and thereby sensitize these cells to ferroptotic death	completely ineffective in mouse or rat cancer cell lines	ineffective in LOX-IMVI cells	–	–	–
O=C(Nc1ccccc1C(=O)O)c1ccc(Oc2ccc(C(=O)Nc3ccccc3C(=O)O)cc2)cc1 [CPBA, 2-[[4-[4-[(2-carboxyphenyl)carbamoyl]phenoxy]benzoyl]amino]-benzoic acid]	–	–	–	sensitizes cancer cell lines of different species and tumor types to ferroptosis	FSP1-expression rescues CPBA- and FIN56-treated cells from ferroptosis	does not enhance the ferroptosis-inducing effect of FIN56 in FSP1-deficient cells
